Patent US8927717B1, “Thiochromeno[2,3-c]quinolin-12-one derivatives, preparation method and application thereof” (National Defense Medical Center, priority 2014, dated 2015)

Assays:
OVCAR-3 = type: cell-based; conditions: OVCAR-3; 10^−5 molar
OVCAR-4 = type: cell-based; conditions: OVCAR-4
M14 = type: cell-based; conditions: M14
SNB-75 = type: cell-based; conditions: SNB-75
HS 578T = type: cell-based; conditions: HS 578T
SF-539 = type: cell-based; conditions: SF-539
HOP-92 = type: cell-based; conditions: HOP-92, five dose
IGROV1 = type: cell-based; conditions: IGROV1
UACC-257 = type: cell-based; conditions: UACC-257
TOP I (Topoisomerase I) [1] = biological target: T1, TOP I (Topoisomerase I) (Homo sapiens, UniProt P11387); assay: TOP I mediated supercoiled DNA relaxation assay; type: biochemical; conditions: primary assay at 25 and/or 50 μM
T1 construct: purchased TopoGEN TG2005H
T1 sequence (P11387 1-765): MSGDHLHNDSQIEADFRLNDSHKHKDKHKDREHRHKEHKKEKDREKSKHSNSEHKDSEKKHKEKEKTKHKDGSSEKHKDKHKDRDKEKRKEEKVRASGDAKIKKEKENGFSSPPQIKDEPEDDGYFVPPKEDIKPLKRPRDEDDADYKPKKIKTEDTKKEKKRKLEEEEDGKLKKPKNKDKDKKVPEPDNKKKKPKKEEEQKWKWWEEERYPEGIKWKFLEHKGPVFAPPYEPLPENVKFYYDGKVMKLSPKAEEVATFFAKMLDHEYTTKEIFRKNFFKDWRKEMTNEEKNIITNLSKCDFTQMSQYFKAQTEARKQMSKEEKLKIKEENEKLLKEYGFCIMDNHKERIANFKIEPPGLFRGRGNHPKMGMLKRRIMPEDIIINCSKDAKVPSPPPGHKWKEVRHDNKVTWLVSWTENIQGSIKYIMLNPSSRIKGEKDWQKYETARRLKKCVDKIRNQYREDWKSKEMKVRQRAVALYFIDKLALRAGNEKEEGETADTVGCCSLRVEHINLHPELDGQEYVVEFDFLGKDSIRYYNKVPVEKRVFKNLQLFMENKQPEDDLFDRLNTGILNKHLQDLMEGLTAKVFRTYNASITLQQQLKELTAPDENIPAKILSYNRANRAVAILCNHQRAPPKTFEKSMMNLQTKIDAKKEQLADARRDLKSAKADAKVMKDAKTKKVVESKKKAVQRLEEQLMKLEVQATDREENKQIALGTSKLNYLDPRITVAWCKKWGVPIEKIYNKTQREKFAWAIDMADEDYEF
Protocol: According to the cell cytotoxicity, compounds 5, 7, 8, 16, 19, N2, N7, N8, N9, N14-N19, and N25 were also selected for primary TOP I and II activities assays at 25 and/or 50 μM (FIG. 2-4).

COLO 205 = type: cell-based; conditions: COLO 205
HL-60(TB) = type: cell-based; conditions: HL-60(TB); 10^−5 molar
HOP-62 = type: cell-based; conditions: HOP-62
SK-MEL-2 = type: cell-based; conditions: SK-Mel-2, five dose
HT29 = type: cell-based; conditions: HT29
NCI-H460 = type: cell-based; conditions: NCI-H460
HCC-2998 = type: cell-based; conditions: HCC-2998
CAKI-1 = type: cell-based; conditions: CAKI-1
SNB-19 = type: cell-based; conditions: SNB-19
TOP I (Topoisomerase I) [2] = biological target: T1, TOP I (Topoisomerase I); assay: TOP I mediated supercoiled DNA relaxation assay; type: biochemical; conditions: five different concentrations; TopoGEN TG2005H, TG-2000H-1
ACHN = type: cell-based; conditions: ACHN
SW-620 = type: cell-based; conditions: SW-620
[3] = Homo sapiens, five dose, read-out: LC50 (the source's name)

O=c1c2cc(Cl)ccc2sc2c(NCc3ccccc3)nc3ccccc3c12 [Compound N25, 6-(Benzylamino)-10-chloro-12H-thiochromeno[2,3-c]quinolin-12-one]
Growth percent (OVCAR-3): 76.59% | GI50 (OVCAR-4; Homo sapiens, five dose): 15 µM | Growth percent (OVCAR-4; 10^−5 molar): 27.24% | TGI (OVCAR-4; five dose): 3.74 µM | GI50 (M14; Homo sapiens, five dose): > 100 µM | LC50 (M14; Homo sapiens, five dose): > 100 µM | Growth percent (M14; 10^−5 molar): 87.29% | TGI (M14; five dose): >100 µM | GI50 (SNB-75; Homo sapiens, five dose): 1.45 µM | LC50 (SNB-75; Homo sapiens, five dose): 9.91 µM | Growth percent (SNB-75; 10^−5 molar): 14.83% | TGI (SNB-75; five dose): 3.78 µM | Growth percent (HS 578T; 10^−5 molar): 34.73% | TGI (HS 578T; five dose): 21.20 µM | GI50 (HS 578T; Homo sapiens, five dose): 2.94 µM | CC50 (HS 578T; [3]): > 100 µM | GI50 (SF-539; Homo sapiens, five dose): 4.49 µM | LC50 (SF-539; Homo sapiens, five dose): > 100 µM | Growth percent (SF-539; 10^−5 molar): 80.59% | TGI (SF-539; five dose): 46.40 µM | TGI (HOP-92): 7.53 µM | GI50 (HOP-92; Homo sapiens): 1.75 µM | LC50 (HOP-92; Homo sapiens): 53.6 µM | GI50 (IGROV1; Homo sapiens, IGROV-1, five dose): 4.64 µM | CC50 (IGROV1; Homo sapiens, IGROV-1, five dose, read-out: LC50 (the source's name)): > 100 µM | Growth percent (IGROV1; 10^−5 molar): 53.42% | TGI (IGROV1; five dose): >100 µM | GI50 (UACC-257; Homo sapiens, five dose): > 100 µM | CC50 (UACC-257; [3]): > 100 µM | Growth percent (UACC-257; 10^−5 molar): 83.24% | TGI (UACC-257; five dose): >100 µM | inhibitory effect in TOP I activity assay compared with CPT (TOP I (Topoisomerase I) [1]): more potent inhibitory effects than CPT | Growth percent (COLO 205; 10^−5 molar): 80.79% | TGI (COLO 205; five dose): >100 µM | LC50 (COLO 205; Homo sapiens, five dose): > 100 µM | Growth percent (HL-60(TB)): 98.82% | Growth percent (HOP-62; 10^−5 molar): 66.53% | TGI (HOP-62; five dose): 5.92 µM | GI50 (HOP-62; Homo sapiens, five dose): 2.43 µM | LC50 (lethal concentration 50) (HOP-62; Homo sapiens, five dose): 27.7 µM | GI50 (SK-MEL-2; Homo sapiens): 10.6 µM | LC50 (SK-MEL-2; Homo sapiens): 96.5 µM | TGI (SK-MEL-2): 31.90 µM | Growth percent (HT29; 10^−5 molar): 77.16% | TGI (HT29; five dose): >100 µM | LC50 (concentration killing 50% of cells) (HT29; Homo sapiens, HT-29, five dose): > 100 µM | GI50 (NCI-H460; Homo sapiens, five dose): 5 µM | LC50 (NCI-H460; Homo sapiens, five dose): > 100 µM | Growth percent (NCI-H460; 10^−5 molar): 64.41% | TGI (NCI-H460; five dose): >100 µM | Growth percent (HCC-2998; 10^−5 molar): 95.77% | TGI (HCC-2998; five dose): >100 µM | GI50 (HCC-2998; Homo sapiens, five dose): > 100 µM | LC50 (HCC-2998; Homo sapiens, five dose): > 100 µM | Growth percent (CAKI-1; 10^−5 molar): 80.38% | TGI (CAKI-1; five dose): >100 µM | GI50 (CAKI-1; Homo sapiens, five dose): 6.07 µM | CC50 (CAKI-1; [3]): > 100 µM | GI50 (SNB-19; Homo sapiens, five dose): 8.56 µM | LC50 (concentration killing 50% of cells) (SNB-19; Homo sapiens, five dose): > 100 µM | Growth percent (SNB-19; 10^−5 molar): 102.93% | TGI (SNB-19; five dose): >100 µM | IC50 (TOP I (Topoisomerase I) [2]): ~25 µM | Growth percent (ACHN; 10^−5 molar): 51.82% | TGI (ACHN; five dose): >100 µM | GI50 (ACHN; Homo sapiens, five dose): 4.02 µM | CC50 (ACHN; [3]): > 100 µM | LC50 (SW-620; Homo sapiens, five dose): > 100 µM | Growth percent (SW-620; 10^−5 molar): 78.97% | TGI (SW-620; five dose): >100 µM
